The record followed here is US20230263822A1, “MODULATION OF FACTOR 11 EXPRESSION” (Ionis Pharmaceuticals, Inc., priority 2008, published 2023).

Where two headings read alike, the source gives them in different places. Strand notation (5' to 3'): a small letter for the sugar, then the base; units joined by * are phosphorothioate-linked, units joined directly phosphodiester-linked; [ ] holds rarer units or linkages, { } end groups; capitals alone tell only the bases. e = 2'-O-(2-methoxyethyl) (MOE); [5mC] = 5-methylcytosine; d = 2'-deoxy (DNA)

The conditions of series [1]: mouse, in vivo, sc, 50 mg/kg.
The conditions of series [2]: mouse, in vivo, sc, 50 mg/kg. The source holds these as a separate data set.
The conditions of series [3]: mouse, in vivo, sc, 50 mg/kg. The source holds these as a separate data set.
For series [4] the following is noted: rat, in vivo, sc, 50 mg/kg.
The conditions of series [5]: rat, in vivo, sc, 50 mg/kg. This is another data set of the same source.
The conditions of series [6]: rat, in vivo, sc, 50 mg/kg. The source holds these as a separate data set.
For another series, the system named is murine Factor 11 mRNA. As to the kind of experiment: In vivo antisense inhibition of murine Factor 11 mRNA in liver (Example 10). The following applies: BALB/c mice, relative to PBS control. As for the experimental part: BALB/c mice were injected with 5 mg/kg, 10 mg/kg, 25 mg/kg, or 50 mg/kg of ISIS 404057 or ISIS 404071 twice a week for 3 weeks. A control group of mice was injected with phosphate buffered saline (PBS) twice a week for 3 weeks. Mice were sacrificed 5 days after receiving the last dose. Whole liver was harvested for RNA analysis and plasma was collected for clotting analysis (PT and aPTT) and protein analysis.
RNA was extracted from liver tissue for real-time PCR analysis of Factor 11. […] Results are presented as percent inhibition of Factor 11, relative to control.

For another series, the system named is mouse Factor 11 mRNA. Briefly: Cross-reactive antisense inhibition of murine Factor 11 in primary mouse hepatocytes, 100 nM (Example 9). Type of series: cell-based. The following applies: ~24 hours. As for the experimental part:
Antisense oligonucleotides targeted to a murine factor 11 nucleic acid were tested for their effects on Factor 11 mRNA in vitro. Cultured primary mouse hepatocytes at a density of 10,000 cells per well were treated with 100 nM antisense oligonucleotide. After a treatment period of approximately 24 hours, RNA was isolated from the cells and mouse Factor 11 mRNA levels were measured by quantitative real-time PCR. Factor 11 mRNA levels were adjusted according to total RNA content, as measured by RIBOGREEN. Results are presented as percent inhibition of Factor 11, relative to untreated control cells.
The chimeric antisense oligonucleotides in Tables 16 were designed as 5-10-5 MOE gapmers. The gapmers are 20 nucleotides in length, wherein the central gap segment is comprised of 10 2′-deoxynucleotides and is flanked on both sides (in the 5′ and 3′ directions) by wings comprising 5 nucleotides each. Each nucleotide in the 5′ wing segment and each nucleotide in the 3′ wing segment has a 2′-MOE modification. The internucleoside linkages throughout each gapmer are phosphorothioate (P=S) linkages. All cytidine residues throughout each gapmer are 5-methylcytidines. “Mouse target start site” indicates the 5′-most nucleotide to which the gapmer is targeted. “Mouse target stop site” indicates the 3′-most nucleotide to which the gapmer is targeted. All the mouse oligonucleotides listed show cross-reactivity between the mouse Factor 11 mRNA (GENBANK Accession No. NM_028066.1), incorporated herein as SEQ ID NO: 6 and the human Factor 11 mRNA (GENBANK Accession No. NM_000128.3), incorporated herein as SEQ ID NO: 1. “Human Target Start Site” indicates the 5′-most nucleotide in the human mRNA (GENBANK Accession No. NM_000128.3) to which the antisense oligonucleotide is targeted. “Human Target Stop Site” indicates the 3′-most nucleotide in the human mRNA (GENBANK Accession No. NM_000128.3) to which the antisense oligonucleotide is targeted. “Number of mismatches” indicates the mismatches between the mouse oligonucleotide and the human mRNA sequence.

Setting [7] is: 5 mg/kg twice a week for 3 weeks.
Where [8] appears, read: 10 mg/kg twice a week for 3 weeks.
[9] abbreviates: 25 mg/kg twice a week for 3 weeks.
Setting [10] is: 50 mg/kg twice a week for 3 weeks.

In series [1], “ISIS 445498: 5-8-5 or 6-8-6 MOE microwalk gapmer (Table 44) (antisense GGTGCACAGTTTCTGGCAGG; sugars from the 5' end e6 d8 e6, backbone and methylation of C not given here)” returned an ALT of 66 IU/L, an AST of 102 IU/L, an Albumin of 3.4 and a Bilirubin of 0.24 mg/dL. This substance had a BUN in series [2] of 28 mg/dL. In series [3], this substance came in with an HCT of 47%, a Lymphocyte of 3241, a Neutrophil of 1197 and a Platelets of 802. In series [3], this substance returned an RBC of 9.4, a WBC of 5 and a hemoglobin of 13.9 g/dL. In addition, in series [4], the ALT is reported as 417 IU/L, the AST is given as 124 IU/L, the Albumin was determined as 3.7 and the Bilirubin worked out at 0.14 mg/dL. Moreover, in series [5], the BUN turned out to be 25 mg/dL, the Creatinine came out at 0.5 mg/dL and the Urine protein/creatinine ratio turned out to be 3.1. In series [6], this substance registered an HCT of 49%, a Lymphocyte of 89%, a Neutrophil of 9% and a Platelets of 1061 nL⁻¹. In series [6], this substance yielded an RBC of 8.5 pL⁻¹, a WBC of 13 nL⁻¹, a hemoglobin of 14.7 g/dL and a monocytes of 2.0%.

For “404057 (eT*e[5mC]*e[5mC]*eT*eG*dG*d[5mC]*dA*dT*dT*d[5mC]*dT*d[5mC]*dG*dA*eG*e[5mC]*eA*eT*eT) [compound 404057]”, the “% inhibition of murine Factor 11 mRNA” value is 40% with murine Factor 11 mRNA (setting [7]), 64% in the series with murine Factor 11 mRNA (setting [8]), 85% with murine Factor 11 mRNA (setting [9]) and 95% in the series with murine Factor 11 mRNA (setting [10]).

In series [1], “ISIS 445509: 5-8-5 or 6-8-6 MOE microwalk gapmer (Table 44) (antisense CGGACGGCATTGGTGCACAG; sugars from the 5' end e6 d8 e6, backbone and methylation of C not given here)” came in with an ALT of 80 IU/L, an AST of 117 IU/L, an Albumin of 3.1 and a Bilirubin of 0.17 mg/dL. The substance further showed a BUN in series [2] of 29 mg/dL. In series [3], this substance yielded an HCT of 51%, a Lymphocyte of 3758, a Neutrophil of 1104 and a Platelets of 1085. Moreover, in series [3], the RBC is recorded as 10.2, the WBC was 5 and the hemoglobin is given as 15.3 g/dL. In addition, in series [4], the ALT worked out at 676 IU/L, the AST was 291 IU/L, the Albumin amounted to 3.5 and the Bilirubin is given as 0.14 mg/dL. In series [5], the BUN is listed as 27 mg/dL, the Creatinine is listed as 0.5 mg/dL and the Urine protein/creatinine ratio was determined as 4.0. In series [6], this substance returned an HCT of 47%, a Lymphocyte of 84%, a Neutrophil of 11% and a Platelets of 1115 nL⁻¹. In series [6], the RBC is 8.4 pL⁻¹, the WBC is 17 nL⁻¹, the hemoglobin was determined as 14.1 g/dL and the monocytes is 3.8%.

“404071 (antisense eT*eG*eG*eT*eA*dA*dT*d[5mC]*d[5mC]*dA*d[5mC]*dT*dT*dT*d[5mC]*eA*eG*eA*eG*eG) [compound 404071]”: the “% inhibition of murine Factor 11 mRNA” value is given as 72% in the series on murine Factor 11 mRNA (setting [7]), 82% in the series on murine Factor 11 mRNA (setting [8]), 93% with murine Factor 11 mRNA (setting [9]) and 96% with murine Factor 11 mRNA (setting [10]).

In the case of “404083 (antisense eT*eG*eT*eG*e[5mC]*dA*dG*dA*dG*dT*d[5mC]*dA*d[5mC]*d[5mC]*dT*eG*e[5mC]*e[5mC]*eA*eT) [compound 404083]”, in the series on mouse Factor 11 mRNA, the “% Inhibition of mouse Factor 11 mRNA levels” value is on record as 47%.

In series [1], “ISIS 445503: 5-8-5 or 6-8-6 MOE microwalk gapmer (Table 44) (antisense GCATTGGTGCACAGTTTCTG; sugars from the 5' end e6 d8 e6, backbone and methylation of C not given here)” yielded an ALT of 1314 IU/L, an AST of 852 IU/L, an Albumin of 3.4 and a Bilirubin of 0.28 mg/dL. The BUN in series [2] amounted to 29 mg/dL. In series [3], the HCT amounted to 46%, the Lymphocyte was 6436, the Neutrophil is 1475 and the Platelets was 309. In series [3], this substance yielded an RBC of 9.2, a WBC of 8 and a hemoglobin of 13.6 g/dL.

As to “ISIS 445532: 5-8-5 or 6-8-6 MOE microwalk gapmer (Table 44) (antisense CGGCATTGGTGCACAGTT; sugars from the 5' end e5 d8 e5, backbone and methylation of C not given here)”, in series [1], the ALT is given as 395 IU/L, the AST came out at 360 IU/L, the Albumin is listed as 2.9 and the Bilirubin is 0.20 mg/dL. In addition, the BUN in series [2] is 23 mg/dL. In series [3], this substance had an HCT of 48%, a Lymphocyte of 5490, a Neutrophil of 1116 and a Platelets of 689. Also, in series [3], the RBC is reported as 9.7, the WBC is 7 and the hemoglobin was determined as 14.8 g/dL.

On to “404050 (eT*eG*e[5mC]*eT*eT*dG*dA*dA*dG*dG*dA*dA*dT*dA*dT*e[5mC]*e[5mC]*eA*eG*eA; antisense) [compound 404050]”, for which, in the series on mouse Factor 11 mRNA, the “% Inhibition of mouse Factor 11 mRNA levels” value was determined as 82%.

On to “404066 (eA*eA*eT*eG*eT*d[5mC]*d[5mC]*d[5mC]*dT*dG*dA*dT*dA*d[5mC]*dA*eA*eG*e[5mC]*e[5mC]*eA; antisense) [compound 404066]”, for which the “% Inhibition of mouse Factor 11 mRNA levels” value in the series with mouse Factor 11 mRNA turned out to be 37%.

Take “404089 (antisense eT*eG*eA*eA*eT*dT*dA*dT*d[5mC]*dA*dT*dT*dT*d[5mC]*dT*eT*eG*eA*eA*e[5mC]) [compound 404089]”: the “% Inhibition of mouse Factor 11 mRNA levels” value with mouse Factor 11 mRNA was 6%.

As for “404055 (eT*eG*eT*eT*eA*dT*dA*dG*dT*dT*d[5mC]*dA*dT*dG*d[5mC]*e[5mC]*e[5mC]*eT*eT*e[5mC]; antisense) [compound 404055]”, in the series on mouse Factor 11 mRNA, the “% Inhibition of mouse Factor 11 mRNA levels” value is recorded as 27%.

Regarding “404090 (antisense eT*eG*eA*eT*e[5mC]*dA*dT*dG*dA*dA*dT*dT*dA*dT*d[5mC]*eA*eT*eT*eT*e[5mC]) [compound 404090]”, in the series on mouse Factor 11 mRNA, the “% Inhibition of mouse Factor 11 mRNA levels” value was determined as 42%.

With “404054 (eT*eA*eG*eT*eT*d[5mC]*dA*dT*dG*d[5mC]*d[5mC]*d[5mC]*dT*dT*d[5mC]*eA*eT*eG*eT*e[5mC]; antisense) [compound 404054]”, the “% Inhibition of mouse Factor 11 mRNA levels” value with mouse Factor 11 mRNA is recorded as 45%.

Turning to “404067 (antisense eG*eG*eG*eA*eA*dA*dA*dT*dG*dT*d[5mC]*d[5mC]*d[5mC]*dT*dG*eA*eT*eA*e[5mC]*eA) [compound 404067]”, the “% Inhibition of mouse Factor 11 mRNA levels” value in the series with mouse Factor 11 mRNA was determined as 39%.

As to “404087 (antisense eT*eT*e[5mC]*eT*eT*dG*dA*dA*d[5mC]*d[5mC]*d[5mC]*dT*dG*dA*dA*eG*eA*eA*eA*eG) [compound 404087]”, in the series on mouse Factor 11 mRNA, the “% Inhibition of mouse Factor 11 mRNA levels” value was determined as 29%.
